Assay results from patent US8993574B2, “Pyrrole antifungal agents” (F2G Ltd, priority 2008, dated 2015).
In brackets after ≈: the same amount, converted by molar mass.

Assays:
Type in all cases: cell-based
Candida albicans = assay: MIC, RPMI medium; conditions: 24-48 h at 35° C., >80% growth inhibition, banded into grades; for MIC: Candida albicans
Summary of the method: (§1)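 Broth microdilution in RPMI with 2% glucose, 0.135 M MOPS pH 7.0; compounds as doubling dilutions, 50-0.05 mg/L, inoculum 1−2×10^4 cfu/mL. Incubated 24-48 h at 35° C; growth by OD 485 nm. MIC is lowest concentration giving >80% growth inhibition versus drug-free control.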

Candida parapsilosis = assay: MIC, RPMI medium; conditions: 24-48 h at 35° C., >80% growth inhibition, banded into grades; for MIC: Lodderomyces parapsilosis
Summary of the method: as §1

Aspergillus niger [1] = assay: MIC, RPMI medium; conditions: MIC banded into grades; for MIC: Aspergillus niger, read-out: MIC grade, A. niger
Summary of the method: as §1

Aspergillus flavus [2] = assay: MIC, RPMI medium; conditions: MIC banded into grades; for MIC: Aspergillus flavus, read-out: MIC grade, A. flavus
Summary of the method: as §1

Aspergillus terreus AT4 [3] = assay: MIC, RPMI medium; conditions: for MIC: Aspergillus terreus, AT4, MIC banded into grades, read-out: MIC grade, A. terreus
Summary of the method: as §1

Candida tropicalis = assay: MIC, RPMI medium; conditions: 24-48 h at 35° C., >80% growth inhibition, banded into grades; for MIC: Candida tropicalis
Summary of the method: as §1

Aspergillus terreus AT49 [4] = assay: MIC, RPMI medium; conditions: for MIC: Aspergillus terreus, AT49, MIC banded into grades, read-out: MIC grade, A. terreus 49
Summary of the method: as §1

Candida krusei = assay: MIC, RPMI medium; conditions: 24-48 h at 35° C., >80% growth inhibition, banded into grades; for MIC: Pichia kudriavzevii
Summary of the method: as §1

Candida glabrata = assay: MIC, RPMI medium; conditions: 24-48 h at 35° C., >80% growth inhibition, banded into grades; for MIC: Nakaseomyces glabratus
Summary of the method: as §1

[5] = tested on: Aspergillus fumigatus AF210; assay: MIC, RPMI medium; conditions: for MIC: Aspergillus fumigatus, AF210, MIC banded into grades, read-out: MIC grade, A. fumigatus 210
Summary of the method: as §1

[6] = tested on: Aspergillus fumigatus AF293; assay: MIC, RPMI medium; conditions: for MIC: Aspergillus fumigatus, AF293, MIC banded into grades, read-out: MIC grade, A. fumigatus
Summary of the method: as §1

Aspergillus niger [7] = assay: MIC, YAG medium; conditions: 24 h at 35° C, MIC banded into grades; for MIC: Aspergillus niger, read-out: MIC grade, A. niger
Summary of the method: (§2)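 Spores harvested from 5-day Sabouraud agar cultures were inoculated at 1−2×10^4 cfu/mL into YAG medium (1% glucose, 1% ammonium chloride, 0.5% yeast extract) over doubling drug dilutions spanning 50-0.05 mg/L, or 0.5-0.0005 mg/L on repeat. After 24 h at 35° C, OD485 was read. MIC is the lowest concentration inhibiting growth >70% versus drug-free control, in mg/L.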

Aspergillus flavus [8] = assay: MIC, YAG medium; conditions: 24 h at 35° C, MIC banded into grades; for MIC: Aspergillus flavus, 24 h, read-out: MIC grade, A. flavus
Summary of the method: as §2

Aspergillus terreus AT4 [9] = assay: MIC, YAG medium; conditions: 24 h at 35° C, MIC banded into grades; for MIC: Aspergillus terreus, read-out: MIC grade, A. terreus
Summary of the method: as §2

Aspergillus terreus AT49 [10] = assay: MIC, YAG medium; conditions: 24 h at 35° C, MIC banded into grades; for MIC: Aspergillus terreus, read-out: MIC grade, A. terreus 49
Summary of the method: as §2

[11] = tested on: Aspergillus fumigatus AF210; assay: MIC, YAG medium; conditions: 24 h at 35° C, MIC banded into grades; for MIC: Aspergillus fumigatus, read-out: MIC grade, A. fumigatus 210
Summary of the method: as §2

[12] = tested on: Aspergillus fumigatus AF293; assay: MIC, YAG medium; conditions: 24 h at 35° C, MIC banded into grades; for MIC: Aspergillus fumigatus, read-out: MIC grade, A. fumigatus
Summary of the method: as §2

| MIC (Candida albicans) [µg/mL] | MIC (Candida parapsilosis) [µg/mL] | MIC (Aspergillus niger [1]) [µg/mL] | MIC (Aspergillus flavus [2]) [µg/mL] | MIC (Aspergillus terreus AT4 [3]) [µg/mL] | MIC (Candida tropicalis) [µg/mL] | MIC (Aspergillus terreus AT49 [4]) [µg/mL] | MIC (Candida krusei) [µg/mL] | MIC (Candida glabrata) [µg/mL] | MIC [5] [µg/mL] | MIC [6] [µg/mL] | MIC (Aspergillus niger [7]) [µg/mL] | MIC (Aspergillus flavus [8]) [µg/mL] | MIC (Aspergillus terreus AT4 [9]) [µg/mL] | MIC (Aspergillus terreus AT49 [10]) [µg/mL] | MIC [11] [µg/mL] | MIC [12] [µg/mL] | Compound | other results |
| --- | --- | --- | --- | --- | --- | --- | --- | --- | --- | --- | --- | --- | --- | --- | --- | --- | --- | --- |
|  |  |  |  |  |  |  |  |  |  |  |  |  |  |  |  |  | COC(=O)Cn1ccc(C(C)C)c1C(=O)C(=O)Nc1ccc(N2CCN(c3cc(C)cc(C)n3)CC2)cc1 [Example 88] | Candida MIC, C. albicans (Candida albicans): 2 (A grade of 2 represents an MIC of from 1 to 10 mg/L); Candida MIC, C. parapsilosis (Candida parapsilosis): 3 (A grade of 3 represents an MIC of less than 1 mg/L); MIC grade, A. niger (Aspergillus niger [1]): 2 (A grade of 2 represents an MIC of from 1 to 10 mg/L); MIC grade, A. flavus (Aspergillus flavus [2]): 1 (a grade of 1 represents an MIC of greater than 10 mg/L); MIC grade, A. terreus (Aspergillus terreus AT4 [3]; MIC banded into grades): 1 (a grade of 1 represents an MIC of greater than 10 mg/L); Candida MIC, C. tropicalis (Candida tropicalis): 3 (A grade of 3 represents an MIC of less than 1 mg/L); MIC grade, A. terreus 49 (Aspergillus terreus AT49 [4]; MIC banded into grades): 1 (a grade of 1 represents an MIC of greater than 10 mg/L); Candida MIC, C. krusei (Candida krusei): 3 (A grade of 3 represents an MIC of less than 1 mg/L); Candida MIC, C. glabrata (Candida glabrata): 3 (A grade of 3 represents an MIC of less than 1 mg/L); MIC grade, A. fumigatus 210 ([5]; MIC banded into grades): 3 (A grade of 3 represents an MIC of less than 1 mg/L); MIC grade, A. fumigatus ([6]; MIC banded into grades): 3 (A grade of 3 represents an MIC of less than 1 mg/L); MIC grade, A. niger (Aspergillus niger [7]): 2 (A grade of 2 represents an MIC of from 1 to 10 mg/L); MIC grade, A. flavus (Aspergillus flavus [8]): 1 (a grade of 1 represents an MIC of greater than 10 mg/L); MIC grade, A. terreus (Aspergillus terreus AT4 [9]): 2 (A grade of 2 represents an MIC of from 1 to 10 mg/L); MIC grade, A. terreus 49 (Aspergillus terreus AT49 [10]): 1 (a grade of 1 represents an MIC of greater than 10 mg/L); MIC grade, A. fumigatus 210 [11]: 3 (A grade of 3 represents an MIC of less than 1 mg/L); MIC grade, A. fumigatus [12]: 3 (A grade of 3 represents an MIC of less than 1 mg/L) |
| < 1 | < 1 | > 10 | > 10 | > 10 | < 1 | > 10 | < 1 | < 1 | > 10 | > 10 | > 10 | > 10 | > 10 | > 10 | > 10 | > 10 | Cc1cc(C)nc(N2CCN(c3ccc(NC(=O)C(=O)c4c(-c5ccccc5)ccn4CCN(C)C)cc3)CC2)c1 [Example 84, 2-[1-(2-Dimethylamino-ethyl)-3-phenyl-1H-pyrrol-2-yl]-N-{4-[4-(4,6-dimethyl-pyridin-2-yl)-piperazin-1-yl]-phenyl}-2-oxo-acetamide] |  |
| 1 to 10 (≈ 1.75 to 17.5 µM) | 1 to 10 (≈ 1.75 to 17.5 µM) | 1 to 10 (≈ 1.75 to 17.5 µM) | > 10 | 1 to 10 (≈ 1.75 to 17.5 µM) | 1 to 10 (≈ 1.75 to 17.5 µM) | 1 to 10 (≈ 1.75 to 17.5 µM) | < 1 | < 1 | 1 to 10 (≈ 1.75 to 17.5 µM) | 1 to 10 (≈ 1.75 to 17.5 µM) | 1 to 10 (≈ 1.75 to 17.5 µM) | 1 to 10 (≈ 1.75 to 17.5 µM) | 1 to 10 (≈ 1.75 to 17.5 µM) | < 1 | < 1 | < 1 | COCCn1ccc(-c2ccccc2Cl)c1C(=O)C(=O)Nc1ccc(N2CCN(c3cc(C)cc(C)n3)CC2)cc1 [Example 57, 2-[3-(2-Chloro-phenyl)-1-(2-methoxy-ethyl)-1H-pyrrol-2-yl]-N-{4-[4-(4,6-dimethyl-pyridin-2-yl)-piperazin-1-yl]-phenyl}-2-oxo-acetamide] |  |
